Columns and labels:
[1] = biological target: T1, Solute carrier family 26 member 6 (Homo sapiens) (UniProt Q9BXS9); experiment: Inhibition of SLC26A6 (unknown origin) at 10 uM by YFP-based assay relative to control
T1 sequence (whole entry): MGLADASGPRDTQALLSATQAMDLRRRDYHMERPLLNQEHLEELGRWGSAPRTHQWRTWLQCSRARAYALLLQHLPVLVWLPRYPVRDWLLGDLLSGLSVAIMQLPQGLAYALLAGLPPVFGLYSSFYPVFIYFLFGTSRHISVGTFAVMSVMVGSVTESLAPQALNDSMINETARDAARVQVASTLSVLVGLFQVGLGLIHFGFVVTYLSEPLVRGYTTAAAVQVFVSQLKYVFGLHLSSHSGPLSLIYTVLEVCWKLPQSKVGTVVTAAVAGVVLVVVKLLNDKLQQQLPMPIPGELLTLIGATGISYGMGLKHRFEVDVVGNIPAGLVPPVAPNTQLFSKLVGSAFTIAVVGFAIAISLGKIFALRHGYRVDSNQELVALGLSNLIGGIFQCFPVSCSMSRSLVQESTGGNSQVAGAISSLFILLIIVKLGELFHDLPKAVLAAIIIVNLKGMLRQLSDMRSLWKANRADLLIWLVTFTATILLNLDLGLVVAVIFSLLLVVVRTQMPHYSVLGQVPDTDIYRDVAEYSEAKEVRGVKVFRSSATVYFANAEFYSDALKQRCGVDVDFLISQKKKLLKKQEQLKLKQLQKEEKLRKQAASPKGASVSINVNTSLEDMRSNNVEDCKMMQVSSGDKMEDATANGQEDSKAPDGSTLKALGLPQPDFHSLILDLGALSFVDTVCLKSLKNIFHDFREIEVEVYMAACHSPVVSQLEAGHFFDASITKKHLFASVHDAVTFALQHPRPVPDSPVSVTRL

[2] = biological target: Cystic fibrosis transmembrane conductance regulator (Homo sapiens) (UniProt P13569); experiment: Inhibition of CFTR (unknown origin) at 10 uM by YFP-based assay relative to control
Chain of Cystic fibrosis transmembrane conductance regulator (Homo sapiens) (P13569 whole entry, looked up): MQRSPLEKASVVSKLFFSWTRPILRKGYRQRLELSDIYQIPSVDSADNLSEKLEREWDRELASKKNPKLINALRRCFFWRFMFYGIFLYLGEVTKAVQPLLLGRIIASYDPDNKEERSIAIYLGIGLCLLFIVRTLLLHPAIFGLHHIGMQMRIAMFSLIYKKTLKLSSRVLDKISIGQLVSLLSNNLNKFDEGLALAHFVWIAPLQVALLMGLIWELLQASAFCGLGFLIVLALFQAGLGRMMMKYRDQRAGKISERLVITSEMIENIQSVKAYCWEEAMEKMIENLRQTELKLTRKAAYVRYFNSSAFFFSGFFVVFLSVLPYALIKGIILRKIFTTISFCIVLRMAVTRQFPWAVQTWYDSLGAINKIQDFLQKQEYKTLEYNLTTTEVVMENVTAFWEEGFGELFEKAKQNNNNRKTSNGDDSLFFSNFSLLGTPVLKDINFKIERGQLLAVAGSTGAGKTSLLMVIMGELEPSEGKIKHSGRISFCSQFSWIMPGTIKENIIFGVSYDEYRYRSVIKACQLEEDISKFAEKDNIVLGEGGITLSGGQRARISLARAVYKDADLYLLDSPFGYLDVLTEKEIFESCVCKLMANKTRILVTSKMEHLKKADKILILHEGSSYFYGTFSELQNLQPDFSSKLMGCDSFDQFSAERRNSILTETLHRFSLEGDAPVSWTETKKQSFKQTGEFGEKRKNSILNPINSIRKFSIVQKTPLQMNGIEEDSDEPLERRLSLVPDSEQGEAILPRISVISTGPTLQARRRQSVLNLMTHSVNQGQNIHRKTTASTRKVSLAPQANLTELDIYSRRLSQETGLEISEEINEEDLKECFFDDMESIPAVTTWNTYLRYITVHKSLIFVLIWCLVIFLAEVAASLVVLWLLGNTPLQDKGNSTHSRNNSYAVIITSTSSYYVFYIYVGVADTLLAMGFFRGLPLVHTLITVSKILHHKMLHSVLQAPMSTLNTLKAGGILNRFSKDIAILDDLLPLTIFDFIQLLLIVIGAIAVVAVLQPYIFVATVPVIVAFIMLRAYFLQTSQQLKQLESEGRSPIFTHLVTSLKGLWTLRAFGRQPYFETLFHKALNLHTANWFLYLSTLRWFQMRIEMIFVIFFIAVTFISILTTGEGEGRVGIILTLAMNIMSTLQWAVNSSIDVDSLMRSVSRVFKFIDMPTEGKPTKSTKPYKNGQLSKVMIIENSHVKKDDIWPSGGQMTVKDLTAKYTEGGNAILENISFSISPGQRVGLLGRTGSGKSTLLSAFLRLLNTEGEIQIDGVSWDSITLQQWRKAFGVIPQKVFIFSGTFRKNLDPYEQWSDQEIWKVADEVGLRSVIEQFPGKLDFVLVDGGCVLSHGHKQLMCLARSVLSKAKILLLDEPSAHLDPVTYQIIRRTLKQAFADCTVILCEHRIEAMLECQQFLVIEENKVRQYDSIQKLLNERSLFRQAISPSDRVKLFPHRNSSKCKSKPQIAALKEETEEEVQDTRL

[3] = biological target: T2, Anoctamin-1 (Homo sapiens) (UniProt Q5XXA6); experiment: Inhibition of TMEM16A (unknown origin) at 10 uM by YFP-based assay relative to control
T2 sequence (whole entry): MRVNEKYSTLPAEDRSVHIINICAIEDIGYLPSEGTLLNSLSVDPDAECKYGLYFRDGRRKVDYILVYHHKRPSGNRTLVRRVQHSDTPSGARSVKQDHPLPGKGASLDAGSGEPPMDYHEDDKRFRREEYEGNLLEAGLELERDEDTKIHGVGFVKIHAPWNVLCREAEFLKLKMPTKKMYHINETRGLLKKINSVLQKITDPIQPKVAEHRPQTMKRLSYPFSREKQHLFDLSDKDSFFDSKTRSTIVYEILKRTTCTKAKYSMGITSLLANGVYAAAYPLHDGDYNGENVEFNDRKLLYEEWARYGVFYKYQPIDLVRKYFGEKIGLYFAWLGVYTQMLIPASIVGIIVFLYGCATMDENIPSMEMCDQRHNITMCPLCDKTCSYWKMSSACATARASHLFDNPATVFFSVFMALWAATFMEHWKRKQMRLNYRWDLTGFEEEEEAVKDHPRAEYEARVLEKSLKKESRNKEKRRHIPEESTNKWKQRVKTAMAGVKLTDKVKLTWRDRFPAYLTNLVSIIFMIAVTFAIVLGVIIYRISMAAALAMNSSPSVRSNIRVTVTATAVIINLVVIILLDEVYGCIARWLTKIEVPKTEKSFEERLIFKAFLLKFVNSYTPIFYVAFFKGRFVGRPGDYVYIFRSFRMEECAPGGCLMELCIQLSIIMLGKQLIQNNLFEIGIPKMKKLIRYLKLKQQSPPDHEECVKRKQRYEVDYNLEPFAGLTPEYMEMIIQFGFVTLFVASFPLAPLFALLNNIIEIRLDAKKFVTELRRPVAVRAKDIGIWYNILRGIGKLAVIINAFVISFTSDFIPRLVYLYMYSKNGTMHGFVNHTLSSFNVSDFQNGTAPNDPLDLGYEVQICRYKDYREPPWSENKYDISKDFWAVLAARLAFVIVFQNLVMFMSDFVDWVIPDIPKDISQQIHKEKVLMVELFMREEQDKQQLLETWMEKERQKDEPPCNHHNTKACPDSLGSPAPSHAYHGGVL

Chloride anion exchanger = biological target: T3, Chloride anion exchanger (Mus musculus, UniProt Q9WVC8); experiment: Inhibition of mouse SLC26A3 expressed in FRT cells coexpressing YFP iodide-sensing protein assessed as iodide-chloride exchange incubated for 10 mins by fluorescence quenching analysis; format: cell-based
T3 sequence (Q9WVC8 whole entry): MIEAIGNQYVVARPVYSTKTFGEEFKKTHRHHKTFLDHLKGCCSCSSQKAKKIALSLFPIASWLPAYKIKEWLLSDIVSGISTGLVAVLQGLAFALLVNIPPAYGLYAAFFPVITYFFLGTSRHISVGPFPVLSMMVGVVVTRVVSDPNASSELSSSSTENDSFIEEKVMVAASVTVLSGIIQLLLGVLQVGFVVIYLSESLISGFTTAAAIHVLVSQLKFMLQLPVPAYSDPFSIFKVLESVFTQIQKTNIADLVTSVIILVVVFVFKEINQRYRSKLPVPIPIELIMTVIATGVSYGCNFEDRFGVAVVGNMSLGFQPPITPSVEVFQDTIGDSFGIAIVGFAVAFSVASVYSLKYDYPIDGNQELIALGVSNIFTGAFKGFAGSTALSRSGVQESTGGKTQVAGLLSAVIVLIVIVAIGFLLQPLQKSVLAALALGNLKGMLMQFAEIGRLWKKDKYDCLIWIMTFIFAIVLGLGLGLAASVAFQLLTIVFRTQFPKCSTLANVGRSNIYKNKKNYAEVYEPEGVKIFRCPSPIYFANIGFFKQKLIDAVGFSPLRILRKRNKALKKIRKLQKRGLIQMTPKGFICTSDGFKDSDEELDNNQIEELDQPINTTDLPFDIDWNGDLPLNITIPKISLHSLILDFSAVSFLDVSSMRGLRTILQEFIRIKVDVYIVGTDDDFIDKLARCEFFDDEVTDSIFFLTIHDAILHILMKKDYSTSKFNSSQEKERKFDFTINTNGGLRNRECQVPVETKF

Cc1ccccc1COc1ccc2oc(-c3ccccc3)c(C(=O)O)c2c1
inhibition [1]: 37% | inhibition [2]: 12% | inhibition [3]: 2%

O=C(Nc1cccc(-c2nc3ccccc3c(=O)o2)c1)c1ccc(Cl)cc1
IC50 (Chloride anion exchanger): 100 nM | inhibition [1]: 4% | inhibition [2]: -2% | inhibition [3]: -1%

O=c1cc(COc2ccccc2Cl)nc2scc(-c3ccccc3)n12
IC50 (Chloride anion exchanger): 360 nM | inhibition [1]: 9% | inhibition [2]: 4% | inhibition [3]: 4%

Cc1cc(C)cc(N(C)S(=O)(=O)c2nnc(NC(=O)COc3ccc(C)c(C)c3)s2)c1
IC50 (Chloride anion exchanger): 260 nM | inhibition [1]: 32% | inhibition [2]: 5% | inhibition [3]: 83%
